Experimental data: the kinase profiling compilation of Christmann-Franck et al. (2016)

Key:
Experiment in all cases: radiometric filter-binding kinase assay
[1] = biological target: CDK2 CCNA2 (human) (UniProt P20248+P24941)
[2] = biological target: NUAK1 (human) (UniProt O60285)
[3] = biological target: SYK (human) (UniProt P43405)
[4] = biological target: MARK4 (human) (UniProt Q96L34)
[5] = biological target: EPHB3 (human) (UniProt P54753)
[6] = biological target: CSNK2A1 (human) (UniProt P68400)
[7] = biological target: PIM2 (human) (UniProt Q9P1W9)
[8] = biological target: DYRK1A (human) (UniProt Q13627)
[9] = biological target: MAPK13 (human) (UniProt O15264)
[10] = biological target: MARK3 (human) (UniProt P27448)
[11] = system: PRKAA1 or PRKAA2 (rat); details: accession and sequence are those of the human protein
[12] = biological target: CHEK1 (human) (UniProt O14757)
[13] = biological target: CAMKK2 (human) (UniProt Q96RR4)
[14] = biological target: INSR (human) (UniProt P06213)
[15] = biological target: PRKACA (human) (UniProt P17612)
[16] = biological target: IGF1R (human) (UniProt P08069)
[17] = biological target: SRC (human) (UniProt P12931)
[18] = biological target: PRKCZ (human) (UniProt Q05513)
[19] = system: LCK (mouse); details: accession and sequence are those of the human protein
[20] = biological target: MINK1 (human) (UniProt Q8N4C8)
[21] = biological target: PAK4 (human) (UniProt O96013)
[22] = biological target: INSRR (human) (UniProt P14616)
[23] = biological target: MKNK1 (human) (UniProt Q9BUB5)
[24] = biological target: NTRK1 (human) (UniProt P04629)
[25] = biological target: CaMK1 (human) (UniProt Q14012)
[26] = system: AKT2 (human), P31751 [S474D]
[27] = biological target: AURKB (human) (UniProt Q96GD4)
[28] = biological target: JAK2 JH1 JH2 (human) (UniProt O60674)
[29] = biological target: MAP2K1 (human) (UniProt Q02750)
[30] = biological target: MAP3K11 (human) (UniProt Q16584)
[31] = biological target: PHKG1 (human) (UniProt Q16816)
[32] = biological target: MAPK10 (human) (UniProt P53779)
[33] = biological target: MST4 (human) (UniProt Q9P289)
[34] = biological target: MAP3K9 (human) (UniProt P80192)
[35] = biological target: YES1 (human) (UniProt P07947)
[36] = biological target: RIPK2 (human) (UniProt O43353)
Chain of RIPK2 (human) (O43353 whole entry, looked up): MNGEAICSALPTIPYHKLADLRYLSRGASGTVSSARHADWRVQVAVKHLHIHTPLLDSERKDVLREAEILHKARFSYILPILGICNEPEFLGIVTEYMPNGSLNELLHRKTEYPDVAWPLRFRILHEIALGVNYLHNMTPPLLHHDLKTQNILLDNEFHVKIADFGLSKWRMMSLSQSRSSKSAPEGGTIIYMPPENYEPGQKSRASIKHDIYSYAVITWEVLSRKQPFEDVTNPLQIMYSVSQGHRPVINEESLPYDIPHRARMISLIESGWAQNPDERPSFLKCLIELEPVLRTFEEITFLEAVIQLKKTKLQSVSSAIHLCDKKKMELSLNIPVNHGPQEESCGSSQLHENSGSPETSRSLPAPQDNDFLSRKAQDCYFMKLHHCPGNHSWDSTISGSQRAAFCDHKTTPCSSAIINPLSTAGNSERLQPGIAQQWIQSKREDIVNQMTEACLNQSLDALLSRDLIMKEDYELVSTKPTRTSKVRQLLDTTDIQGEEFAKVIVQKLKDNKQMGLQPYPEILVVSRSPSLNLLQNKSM

Chain of PAK4 (human) (O96013 whole entry, looked up): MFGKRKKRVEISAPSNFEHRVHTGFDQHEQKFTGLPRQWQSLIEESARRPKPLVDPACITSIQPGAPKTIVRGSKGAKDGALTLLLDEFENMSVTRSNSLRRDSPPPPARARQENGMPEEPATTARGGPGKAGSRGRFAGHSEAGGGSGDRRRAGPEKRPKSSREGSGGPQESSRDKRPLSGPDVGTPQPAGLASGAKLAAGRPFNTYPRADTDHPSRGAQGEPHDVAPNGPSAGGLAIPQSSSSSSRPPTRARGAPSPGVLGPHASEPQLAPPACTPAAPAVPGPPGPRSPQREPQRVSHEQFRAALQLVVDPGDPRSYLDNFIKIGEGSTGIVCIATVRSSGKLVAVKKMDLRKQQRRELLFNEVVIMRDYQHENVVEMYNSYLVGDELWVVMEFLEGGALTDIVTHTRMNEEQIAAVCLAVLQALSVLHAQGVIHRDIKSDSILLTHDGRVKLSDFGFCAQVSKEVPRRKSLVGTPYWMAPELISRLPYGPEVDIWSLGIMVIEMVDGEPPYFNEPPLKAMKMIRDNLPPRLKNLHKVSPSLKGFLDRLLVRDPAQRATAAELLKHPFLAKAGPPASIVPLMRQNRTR
Chain of MARK4 (human) (Q96L34 whole entry, looked up): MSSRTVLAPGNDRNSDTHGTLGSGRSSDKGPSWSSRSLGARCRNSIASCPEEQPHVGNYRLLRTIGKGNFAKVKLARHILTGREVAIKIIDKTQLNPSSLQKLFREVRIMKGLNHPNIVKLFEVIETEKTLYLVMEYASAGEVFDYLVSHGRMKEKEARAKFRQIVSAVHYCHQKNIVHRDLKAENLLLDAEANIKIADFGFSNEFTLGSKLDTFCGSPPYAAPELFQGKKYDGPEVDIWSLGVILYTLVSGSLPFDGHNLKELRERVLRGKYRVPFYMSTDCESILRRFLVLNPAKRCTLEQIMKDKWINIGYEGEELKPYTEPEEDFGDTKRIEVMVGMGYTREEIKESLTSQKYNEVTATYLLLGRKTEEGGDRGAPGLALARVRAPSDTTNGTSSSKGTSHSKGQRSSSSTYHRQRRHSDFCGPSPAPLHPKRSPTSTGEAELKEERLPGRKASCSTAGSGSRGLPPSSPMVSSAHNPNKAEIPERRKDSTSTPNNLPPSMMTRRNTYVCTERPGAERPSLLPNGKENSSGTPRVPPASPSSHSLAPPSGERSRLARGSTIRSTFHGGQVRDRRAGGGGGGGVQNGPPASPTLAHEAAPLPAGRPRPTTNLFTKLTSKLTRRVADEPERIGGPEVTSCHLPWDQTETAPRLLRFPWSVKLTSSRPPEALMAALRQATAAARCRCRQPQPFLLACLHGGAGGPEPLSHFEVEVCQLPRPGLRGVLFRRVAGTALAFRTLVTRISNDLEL
Chain of AURKB (human) (Q96GD4 whole entry, looked up): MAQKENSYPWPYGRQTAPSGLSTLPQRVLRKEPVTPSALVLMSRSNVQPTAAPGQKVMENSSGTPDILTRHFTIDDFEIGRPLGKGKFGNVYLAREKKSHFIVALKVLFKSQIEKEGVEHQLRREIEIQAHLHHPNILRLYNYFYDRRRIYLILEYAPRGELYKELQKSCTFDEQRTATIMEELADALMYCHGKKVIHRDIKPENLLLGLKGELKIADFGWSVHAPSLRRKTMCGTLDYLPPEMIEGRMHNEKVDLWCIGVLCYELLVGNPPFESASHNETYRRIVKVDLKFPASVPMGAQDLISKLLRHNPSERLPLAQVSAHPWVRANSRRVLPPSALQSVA
Chain of MAPK10 (human) (P53779 whole entry, looked up): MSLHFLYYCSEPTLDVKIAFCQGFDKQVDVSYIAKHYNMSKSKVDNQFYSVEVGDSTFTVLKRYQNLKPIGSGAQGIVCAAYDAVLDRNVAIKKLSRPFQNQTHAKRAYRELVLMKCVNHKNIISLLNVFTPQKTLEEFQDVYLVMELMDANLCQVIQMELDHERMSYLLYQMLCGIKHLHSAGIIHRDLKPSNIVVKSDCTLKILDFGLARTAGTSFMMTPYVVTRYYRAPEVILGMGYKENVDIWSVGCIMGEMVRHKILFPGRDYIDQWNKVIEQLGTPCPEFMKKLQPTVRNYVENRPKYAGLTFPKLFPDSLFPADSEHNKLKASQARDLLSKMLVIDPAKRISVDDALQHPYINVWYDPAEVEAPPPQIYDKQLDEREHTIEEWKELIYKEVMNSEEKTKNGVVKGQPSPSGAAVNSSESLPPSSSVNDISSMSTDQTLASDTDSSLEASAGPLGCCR
Chain of CaMK1 (human) (Q14012 whole entry, looked up): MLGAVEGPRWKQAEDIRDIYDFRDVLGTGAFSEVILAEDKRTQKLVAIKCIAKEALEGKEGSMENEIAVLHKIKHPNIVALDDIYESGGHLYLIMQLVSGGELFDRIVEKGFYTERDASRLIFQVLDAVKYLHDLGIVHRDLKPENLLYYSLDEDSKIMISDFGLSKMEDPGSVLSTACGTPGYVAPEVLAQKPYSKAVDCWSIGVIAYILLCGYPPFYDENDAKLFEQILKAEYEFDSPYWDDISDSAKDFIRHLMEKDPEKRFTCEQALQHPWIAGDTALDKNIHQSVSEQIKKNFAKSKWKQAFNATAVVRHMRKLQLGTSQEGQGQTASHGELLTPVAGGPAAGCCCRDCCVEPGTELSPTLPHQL
Chain of CHEK1 (human) (O14757 whole entry, looked up): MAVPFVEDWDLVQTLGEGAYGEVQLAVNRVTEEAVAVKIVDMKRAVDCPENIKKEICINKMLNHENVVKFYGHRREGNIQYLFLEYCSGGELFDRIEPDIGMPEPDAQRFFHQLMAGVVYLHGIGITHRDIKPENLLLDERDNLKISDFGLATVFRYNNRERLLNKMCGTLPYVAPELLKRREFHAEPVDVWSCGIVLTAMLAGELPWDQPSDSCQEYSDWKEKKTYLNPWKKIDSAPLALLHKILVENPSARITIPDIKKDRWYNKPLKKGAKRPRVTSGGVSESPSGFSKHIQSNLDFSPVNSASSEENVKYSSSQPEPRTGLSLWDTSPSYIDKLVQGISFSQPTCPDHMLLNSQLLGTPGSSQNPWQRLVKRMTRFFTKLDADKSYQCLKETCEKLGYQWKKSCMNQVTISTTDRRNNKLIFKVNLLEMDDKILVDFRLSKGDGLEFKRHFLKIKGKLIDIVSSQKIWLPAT
Chain of YES1 (human) (P07947 whole entry, looked up): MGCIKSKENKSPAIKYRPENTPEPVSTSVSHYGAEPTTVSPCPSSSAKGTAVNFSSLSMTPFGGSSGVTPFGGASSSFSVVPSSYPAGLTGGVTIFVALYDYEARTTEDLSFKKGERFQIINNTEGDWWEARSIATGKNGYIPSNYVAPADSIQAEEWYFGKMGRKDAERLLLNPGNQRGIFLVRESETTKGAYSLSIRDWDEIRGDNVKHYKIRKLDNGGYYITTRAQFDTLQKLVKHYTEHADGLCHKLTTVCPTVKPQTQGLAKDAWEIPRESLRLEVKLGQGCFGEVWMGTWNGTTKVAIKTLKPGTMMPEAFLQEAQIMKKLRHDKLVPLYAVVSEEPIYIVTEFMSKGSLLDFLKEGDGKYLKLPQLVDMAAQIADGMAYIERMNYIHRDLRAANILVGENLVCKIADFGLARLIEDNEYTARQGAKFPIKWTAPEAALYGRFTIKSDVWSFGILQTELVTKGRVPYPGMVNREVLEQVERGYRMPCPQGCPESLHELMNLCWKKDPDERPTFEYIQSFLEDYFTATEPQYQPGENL
Chain of MKNK1 (human) (Q9BUB5 whole entry, looked up): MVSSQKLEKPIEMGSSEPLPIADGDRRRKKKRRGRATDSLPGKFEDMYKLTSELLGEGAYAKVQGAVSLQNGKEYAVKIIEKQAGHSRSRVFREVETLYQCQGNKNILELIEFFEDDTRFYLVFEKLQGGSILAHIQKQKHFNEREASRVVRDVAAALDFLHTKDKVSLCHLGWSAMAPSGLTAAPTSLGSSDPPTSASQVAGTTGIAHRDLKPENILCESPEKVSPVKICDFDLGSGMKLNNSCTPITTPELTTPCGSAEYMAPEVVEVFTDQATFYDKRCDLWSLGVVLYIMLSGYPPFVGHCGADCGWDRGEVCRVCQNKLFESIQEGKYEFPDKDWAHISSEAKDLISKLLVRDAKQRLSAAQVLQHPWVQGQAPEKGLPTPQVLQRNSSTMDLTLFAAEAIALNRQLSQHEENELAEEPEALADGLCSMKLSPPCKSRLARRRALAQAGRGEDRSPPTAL
Chain of MAPK13 (human) (O15264 whole entry, looked up): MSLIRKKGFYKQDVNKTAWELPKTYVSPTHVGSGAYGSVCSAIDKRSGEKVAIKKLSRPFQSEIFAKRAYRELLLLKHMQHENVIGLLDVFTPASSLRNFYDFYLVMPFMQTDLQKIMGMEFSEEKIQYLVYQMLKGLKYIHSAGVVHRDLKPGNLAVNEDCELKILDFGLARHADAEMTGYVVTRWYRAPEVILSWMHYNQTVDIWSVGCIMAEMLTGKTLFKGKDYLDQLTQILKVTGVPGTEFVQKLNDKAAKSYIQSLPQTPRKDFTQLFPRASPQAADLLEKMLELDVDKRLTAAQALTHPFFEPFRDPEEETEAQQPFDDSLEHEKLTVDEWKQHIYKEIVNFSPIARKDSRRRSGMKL

residual activity ([1]; compound 0.1 µM): 100% | residual activity ([1]; compound 1.0 µM): 84% | residual activity ([1]; compound 10.0 µM): 75% | residual activity ([2]; compound 0.1 µM): 101% | residual activity ([2]; compound 1.0 µM): 102% | residual activity ([3]; compound 0.1 µM): 116% | residual activity ([3]; compound 1.0 µM): 100% | residual activity ([3]; compound 10.0 µM): 96% | residual activity ([4]; compound 0.1 µM): 98% | residual activity ([4]; compound 1.0 µM): 102% | residual activity ([4]; compound 10.0 µM): 92% | residual activity ([5]; compound 0.1 µM): 112% | residual activity ([5]; compound 1.0 µM): 99% | residual activity ([5]; compound 10.0 µM): 105% | residual activity ([6]; compound 0.1 µM): 104% | residual activity ([6]; compound 10.0 µM): 84% | residual activity ([7]; compound 0.1 µM): 86% | residual activity ([7]; compound 1.0 µM): 105% | residual activity ([7]; compound 10.0 µM): 97% | residual activity ([8]; compound 0.1 µM): 95% | residual activity ([8]; compound 1.0 µM): 88% | residual activity ([8]; compound 10.0 µM): 57% | residual activity ([9]; compound 0.1 µM): 100% | residual activity ([9]; compound 1.0 µM): 90% | residual activity ([9]; compound 10.0 µM): 106% | residual activity ([10]; compound 0.1 µM): 85% | residual activity ([10]; compound 1.0 µM): 99% | residual activity ([10]; compound 10.0 µM): 91% | residual activity ([11]; compound 0.1 µM): 98% | residual activity ([11]; compound 1.0 µM): 85% | residual activity ([11]; compound 10.0 µM): 83% | residual activity ([12]; compound 0.1 µM): 96% | residual activity ([12]; compound 1.0 µM): 78% | residual activity ([12]; compound 10.0 µM): 45% | residual activity ([13]; compound 0.1 µM): 92% | residual activity ([13]; compound 1.0 µM): 99% | residual activity ([13]; compound 10.0 µM): 84% | residual activity ([14]; compound 1.0 µM): 79% | residual activity ([14]; compound 10.0 µM): 83% | residual activity ([15]; compound 0.1 µM): 104% | residual activity ([15]; compound 1.0 µM): 91% | residual activity ([15]; compound 10.0 µM): 90% | residual activity ([16]; compound 0.1 µM): 116% | residual activity ([16]; compound 1.0 µM): 85% | residual activity ([16]; compound 10.0 µM): 55% | residual activity ([17]; compound 0.1 µM): 101% | residual activity ([17]; compound 1.0 µM): 89% | residual activity ([17]; compound 10.0 µM): 105% | residual activity ([18]; compound 0.1 µM): 97% | residual activity ([18]; compound 1.0 µM): 105% | residual activity ([18]; compound 10.0 µM): 97% | residual activity ([19]; compound 0.1 µM): 106% | residual activity ([19]; compound 1.0 µM): 112% | residual activity ([19]; compound 10.0 µM): 80% | residual activity ([20]; compound 0.1 µM): 106% | residual activity ([20]; compound 1.0 µM): 86% | residual activity ([20]; compound 10.0 µM): 69% | residual activity ([21]; compound 0.1 µM): 75% | residual activity ([21]; compound 1.0 µM): 78% | residual activity ([21]; compound 10.0 µM): 66% | residual activity ([22]; compound 0.1 µM): 95% | residual activity ([22]; compound 1.0 µM): 80% | residual activity ([22]; compound 10.0 µM): 61% | residual activity ([23]; compound 0.1 µM): 105% | residual activity ([23]; compound 1.0 µM): 104% | residual activity ([23]; compound 10.0 µM): 58% | residual activity ([24]; compound 0.1 µM): 107% | residual activity ([24]; compound 1.0 µM): 90% | residual activity ([24]; compound 10.0 µM): 87% | residual activity ([25]; compound 0.1 µM): 108% | residual activity ([25]; compound 1.0 µM): 87% | residual activity ([25]; compound 10.0 µM): 35% | residual activity ([26]; compound 0.1 µM): 69% | residual activity ([26]; compound 1.0 µM): 86% | residual activity ([26]; compound 10.0 µM): 68% | residual activity ([27]; compound 0.1 µM): 106% | residual activity ([27]; compound 1.0 µM): 88% | residual activity ([27]; compound 10.0 µM): 78% | residual activity ([28]; compound 1.0 µM): 84% | residual activity ([28]; compound 10.0 µM): 94% | residual activity ([29]; compound 0.1 µM): 83% | residual activity ([29]; compound 1.0 µM): 72% | residual activity ([29]; compound 10.0 µM): 90% | residual activity ([30]; compound 0.1 µM): 103% | residual activity ([30]; compound 1.0 µM): 97% | residual activity ([30]; compound 10.0 µM): 81% | residual activity ([31]; compound 0.1 µM): 109% | residual activity ([31]; compound 1.0 µM): 98% | residual activity ([31]; compound 10.0 µM): 68% | residual activity ([32]; compound 0.1 µM): 93% | residual activity ([32]; compound 1.0 µM): 91% | residual activity ([32]; compound 10.0 µM): 84% | residual activity ([33]; compound 0.1 µM): 95% | residual activity ([33]; compound 1.0 µM): 103% | residual activity ([33]; compound 10.0 µM): 105% | residual activity ([34]; compound 0.1 µM): 110% | residual activity ([34]; compound 1.0 µM): 93% | residual activity ([35]; compound 0.1 µM): 102% | residual activity ([35]; compound 1.0 µM): 99% | residual activity ([35]; compound 10.0 µM): 68% | residual activity ([36]; compound 0.1 µM): 101% | residual activity ([36]; compound 1.0 µM): 84% | residual activity ([36]; compound 10.0 µM): 38%
Compound: NC1(c2ccc(-c3nc4ccn5c(=O)[nH]nc5c4cc3-c3ccccc3)cc2)CCC1
